Experimental data published in ChEMBL document CHEMBL1154418 (2007).
Converted amounts (≈) assume the structure as drawn. The source made the active and inactive calls. The rule behind the calls is not given here.

How the values were obtained:
[1] = tested on: Escherichia coli; experiment: Antibacterial activity against tetracycline-resistant Escherichia coli clinical isolates expressing tet(B), tet(D), tet(E) gene by broth microdilution method; assay type: functional, organism-based
[2] = tested on: Escherichia coli; experiment: Antibacterial activity against tetracycline-resistant Escherichia coli clinical isolates expressing tet(A), tet(B), tet(D), tet(E) gene by broth microdilution method; assay type: functional, organism-based
[3] = tested on: Escherichia coli; experiment: Antibacterial activity against tetracycline-resistant Escherichia coli clinical isolates by broth microdilution method; assay type: functional
[4] = tested on: Escherichia coli; experiment: Antibacterial activity against tetracycline-resistant Escherichia coli clinical isolates without tet(B) gene by broth microdilution method; assay type: functional
[5] = tested on: Escherichia coli; experiment: Antibacterial activity against tetracycline-resistant Escherichia coli with single drug resistance determinant isolates by broth microdilution method; assay type: functional
[6] = tested on: Escherichia coli; experiment: Antibacterial activity against tetracycline-resistant Escherichia coli with multiple drug resistance determinant isolates by broth microdilution method; assay type: functional
[7] = tested on: Escherichia coli; experiment: Antibacterial activity against tetracycline-susceptible Escherichia coli clinical isolates by broth microdilution method; assay type: functional
[8] = tested on: Escherichia coli; experiment: Antibacterial activity against Escherichia coli ATCC 25922 by broth microdilution method; assay type: functional, organism-based
[9] = tested on: Escherichia coli; experiment: Antibacterial activity against tetracycline-resistant Escherichia coli clinical isolates expressing tet(A), tet(B), tet(D) gene by broth microdilution method; assay type: functional, organism-based
[10] = tested on: Escherichia coli; experiment: Antibacterial activity against tetracycline-resistant Escherichia coli clinical isolates expressing tet(A), tet(B) gene by broth microdilution method; assay type: functional
[11] = tested on: Escherichia coli; experiment: Antibacterial activity against tetracycline-resistant Escherichia coli clinical isolates expressing tet(A) gene by broth microdilution method; assay type: functional
[12] = tested on: Escherichia coli; experiment: Antibacterial activity against tetracycline-resistant Escherichia coli clinical isolates expressing tet(B) gene by broth microdilution method; assay type: functional
[13] = tested on: Escherichia coli; experiment: Antibacterial activity against tetracycline-resistant Escherichia coli clinical isolates expressing tet(C) gene by broth microdilution method; assay type: functional, organism-based
[14] = tested on: Escherichia coli; experiment: Antibacterial activity against tetracycline-resistant Escherichia coli clinical isolates expressing tet(D) gene by broth microdilution method; assay type: functional
[15] = tested on: Escherichia coli; experiment: Antibacterial activity against tetracycline-resistant Escherichia coli clinical isolates expressing tet(E) gene by broth microdilution method; assay type: functional, organism-based
[16] = tested on: Escherichia coli; experiment: Antibacterial activity against tetracycline-resistant Escherichia coli clinical isolates expressing tet(M) gene by broth microdilution method; assay type: functional, organism-based
[17] = tested on: Escherichia coli; experiment: Antibacterial activity against tetracycline-resistant Escherichia coli clinical isolates expressing tet(A), tet(D) gene by broth microdilution method; assay type: functional
[18] = tested on: Escherichia coli; experiment: Antibacterial activity against tetracycline-resistant Escherichia coli clinical isolates expressing tet(A), tet(E) gene by broth microdilution method; assay type: functional, organism-based
[19] = tested on: Escherichia coli; experiment: Antibacterial activity against tetracycline-resistant Escherichia coli clinical isolates expressing tet(A), tet(M) gene by broth microdilution method; assay type: functional, organism-based
[20] = tested on: Escherichia coli; experiment: Antibacterial activity against tetracycline-resistant Escherichia coli clinical isolates expressing tet(B), tet(C) gene by broth microdilution method; assay type: functional, organism-based
[21] = tested on: Escherichia coli; experiment: Antibacterial activity against tetracycline-resistant Escherichia coli clinical isolates expressing tet(B), tet(D) gene by broth microdilution method; assay type: functional
[22] = tested on: Escherichia coli; experiment: Antibacterial activity against tetracycline-resistant Escherichia coli clinical isolates expressing tet(B), tet(E) gene by broth microdilution method; assay type: functional
[23] = tested on: Escherichia coli; experiment: Antibacterial activity against tetracycline-resistant Escherichia coli clinical isolates expressing tet(C), tet(E) gene by broth microdilution method; assay type: functional, organism-based
[24] = tested on: Escherichia coli; experiment: Antibacterial activity against tetracycline-resistant Escherichia coli clinical isolates expressing tet(D), tet(E) gene by broth microdilution method; assay type: functional, organism-based

Compound	Activity [1]	Activity [2]	MIC50 [3] [µg/mL]	MIC90 [3] [µg/mL]	MIC50 [4] [µg/mL]	MIC90 [4] [µg/mL]	MIC50 [5] [µg/mL]	MIC90 [5] [µg/mL]	MIC50 [6] [µg/mL]	MIC90 [6] [µg/mL]	MIC90 [7] [µg/mL]	Activity [9]	MIC50 [10] [µg/mL]	MIC90 [10] [µg/mL]	MIC50 [11] [µg/mL]	MIC90 [11] [µg/mL]	MIC50 [12] [µg/mL]	MIC90 [12] [µg/mL]	Activity [13]	MIC50 [14] [µg/mL]	also measured
CN(C)c1ccc(O)c2c1C[C@H]1C[C@H]3[C@H](N(C)C)C(O)=C(C(N)=O)C(=O)[C@@]3(O)C(O)=C1C2=O [MINOCYCLINE]	inactive	inactive	4 (≈ 8.74 µM)	8 (≈ 17.5 µM)	4 (≈ 8.74 µM)	8 (≈ 17.5 µM)	8 (≈ 17.5 µM)	32 (≈ 69.9 µM)	8 (≈ 17.5 µM)	32 (≈ 69.9 µM)	2 (≈ 4.37 µM)	inactive	16 (≈ 35 µM)	32 (≈ 69.9 µM)	2 (≈ 4.37 µM)	4 (≈ 8.74 µM)	16 (≈ 35 µM)	32 (≈ 69.9 µM)	inactive	8 (≈ 17.5 µM)	MIC50 [7]: 1 µg/mL (≈ 2.19 µM); Activity [8]: inactive; MIC90 [14]: 8 µg/mL (≈ 17.5 µM); Activity [15]: inactive; Activity [16]: inactive; MIC50 [17]: 4 µg/mL (≈ 8.74 µM); MIC90 [17]: 16 µg/mL (≈ 35 µM); Activity [18]: inactive; Activity [19]: inactive; Activity [20]: inactive; MIC50 [21]: 16 µg/mL (≈ 35 µM); MIC90 [21]: 64 µg/mL (≈ 140 µM); MIC50 [22]: 8 µg/mL (≈ 17.5 µM); MIC90 [22]: 32 µg/mL (≈ 69.9 µM); Activity [23]: inactive; Activity [24]: inactive
CN(C)[C@@H]1C(O)=C(C(N)=O)C(=O)[C@@]2(O)C(O)=C3C(=O)c4c(O)cccc4[C@@](C)(O)[C@H]3C[C@@H]12 [TETRACYCLINE]	inactive	inactive	> 64	> 64	> 64	> 64	> 64	> 64	> 64	> 64	4 (≈ 9 µM)	inactive	> 64	> 64	> 64	64 (≈ 144 µM)	> 64	> 64	inactive	> 64	MIC90 [14]: > 64 µg/mL; Activity [15]: inactive; Activity [16]: inactive; MIC50 [17]: > 64 µg/mL; MIC90 [17]: > 64 µg/mL; Activity [18]: inactive; Activity [19]: inactive; Activity [20]: inactive; MIC50 [21]: > 64 µg/mL; MIC90 [21]: > 64 µg/mL; MIC50 [22]: > 64 µg/mL; MIC90 [22]: > 64 µg/mL; Activity [23]: inactive; Activity [24]: inactive
CN(C)c1cc(NC(=O)CNC(C)(C)C)c(O)c2c1C[C@H]1C[C@H]3[C@H](N(C)C)C(O)=C(C(N)=O)C(=O)[C@@]3(O)C(O)=C1C2=O [TIGECYCLINE]	inactive	inactive	0.5 (≈ 0.854 µM)	1 (≈ 1.71 µM)	0.5 (≈ 0.854 µM)	0.5 (≈ 0.854 µM)	0.25 (≈ 0.427 µM)	0.5 (≈ 0.854 µM)	0.25 (≈ 0.427 µM)	0.5 (≈ 0.854 µM)	0.5 (≈ 0.854 µM)	inactive	0.25 (≈ 0.427 µM)	0.5 (≈ 0.854 µM)	0.5 (≈ 0.854 µM)	0.5 (≈ 0.854 µM)	0.25 (≈ 0.427 µM)	0.5 (≈ 0.854 µM)	inactive	0.25 (≈ 0.427 µM)	MIC50 [7]: 0.25 µg/mL (≈ 0.427 µM); Activity [8]: inactive; MIC90 [14]: 0.5 µg/mL (≈ 0.854 µM); Activity [15]: inactive; Activity [16]: inactive; MIC50 [17]: 0.5 µg/mL (≈ 0.854 µM); MIC90 [17]: 1 µg/mL (≈ 1.71 µM); Activity [18]: inactive; Activity [19]: inactive; Activity [20]: inactive; MIC50 [21]: 0.25 µg/mL (≈ 0.427 µM); MIC90 [21]: 0.5 µg/mL (≈ 0.854 µM); MIC50 [22]: 0.25 µg/mL (≈ 0.427 µM); MIC90 [22]: 0.25 µg/mL (≈ 0.427 µM); Activity [23]: inactive; Activity [24]: inactive
